{"source": "paper PMC3056768", "about": "“Conjugation to the Cell-Penetrating Peptide TAT Potentiates the Photodynamic Effect of Carboxytetramethylrhodamine” (PLoS ONE, 2011)", "key": {"red blood cells (RBCs)": {"system": "red blood cells (RBCs)", "conditions": "for effect of hydrophilic 1O2 scavenger on photohemolysis by TMR-TAT or TMR-riTAT: scavenger up to 50 mM, TMR-TAT or TMR-riTAT 3 µM", "protocol": "Whole blood was purchased from Gulf Coast Regional Blood Center (Houston, TX). Erythrocytes were centrifuged for 5 min at 1500 g and the erythrocyte pellet was resuspended with PBS. This was repeated three times to remove plasma and buffy coat. The erythrocytes (50% volume in PBS) were diluted in PBS to a final concentration of 0.25%. Indicated concentration of peptide was added to the medium and the samples were added to the wells of an 8-well chamber glass slide (Nunc). Cells were typically allowed to settle to the bottom of the dish for 5 minutes prior to imaging so as to obtain a layer of cells in the focal plane.\nCells were placed on an inverted epifluorescence microscope (Model IX81, Olympus, Center Valley, PA) equipped with a heating stage maintained at 37°C. The microscope is configured with a spinning disk unit to perform both confocal and wide-field fluorescence microscopy. Images were collected using a Rolera-MGI Plus back-illuminated EMCCD camera (Qimaging, Surrey, BC, Canada). Images were acquired using bright field imaging and two standard fluorescence filter sets: Texas Red (Ex = 560±20 nm/Em = 630±35 nm), and CFP (Ex = 436±10 nm/Em = 480±20 nm). The excitation light was from a 100 W halogen lamp (Olympus USH 1030C) passed through the filter cubes and 40 or 100× objective lenses. Neutral density filters (ND 1, 2, 3, or 4 on the instrument, corresponding to 100, 25, 12.5, or 5% transmittance) and different exposure times were used to modulate the amount of light samples were exposed to. The bright field and fluorescence intensities of cells and ghosts were measured using the SlideBook 4.2 software (Olympus, Center Valley, PA). To determine the percentage of cells stained by SYTOX® Blue, cells were imaged with a 20× objective by phase contrast. Ten to twenty images were acquired for each experiment. The total number of cells in a given image was determined from the phase contrast image while the number of dead cells was determined by identifying cells containing a blue fluorescent nucleus stained by SYTOX® Blue. Cell viability was determined by establishing a ratio of dead cells/total number of cells for each sample (at least 1000 cells were counted in each experiments and each experiments were repeated 3 times).\nTMR and TMR containing peptides were used at 2 µM. All experiments were performed by irradiating the samples at 560 nm for 400 msec (∼8 J/cm^2). The data in the histogram represents the average of 4 experiments and the error bars correspond to the standard deviation."}, "HeLa cells [1]": {"system": "HeLa cells", "experiment": "Photocytotoxicity of endocytosed peptide after light irradiation (SYTOX Blue staining, membrane blebbing)", "assay_type": "cell-based", "conditions": "for photocytotoxicity / cell death after irradiation at 560 nm: incubation 1 h 37°C (3 µM; TMR-K9 10 µM), irradiated at 560±20 nm", "protocol": "(§1) HeLa (human cervical adenocarcinoma), COS-7 (SV40 transformed African green monkey kidney fibroblast-like cell line) were obtained from ATCC. COLO 316 (human ovarian carcinoma) were obtained from Robert Burghardt (Department of Veterinary Integrative Biosciences, Texas A&M University). Cells were cultured in DMEM supplemented with 10% fetal bovine serum (FBS) and maintained at 37°C in a humidified environment with 5% CO2. Cells were plated in 8-well dishes so that the cells were 70% confluent after 24 h, washed 3 times with L-15 media, incubated with 3 to 10 µM peptides at 37°C for 1 h, washed 3 times with L-15, and imaged. Alternatively, cells were incubated in L-15 at 4°C to inhibit the endocytic uptake of peptides. In this case, cells were imaged with the peptide still present in solution and the low temperature was maintained for the entire duration of imaging. For photosensitization, cells were exposed to light (λex = 560±20 nm) for the indicated time points. Plasma membrane disruption was detected by addition of the cell-impermeable DNA stain SYTOX Blue (5 µM) during or after photosensitization.\n(§2) Ten to twenty images were acquired for each experiment.\nIrradiances at the specimen were 100 mW/cm^2 when no neutral density filter and no objective were present in the light path (and, for instance 5 mW/cm^2 when ND4 was inserted). Irradiances were measured using a monochromic photometer (model 840-c, Newport, Irvine, CA). Irradiation area has a diameter of 1.3 cm without objective but the light beam is focused into an area of 3×10^−3 cm^2 by the 100× objective. Irradiances can therefore be approximated to be at […] with ND4 or ND1, respectively. Irradiances provided in the figure legends are based on these calculations. To confirm that the irradiances measured on the microscope were accurate, experiments were also reproduced, when possible, using light illumination with a collimated light source from Oriel (Stratford, CT) equipped with a 500 W Hg lamp. Selective irradiation at 560 nm was performed using an analytical line filter (Oriel, 9.4 nm bandwidth). In this case, irradiances of the light beam (diameter of 2.5 cm) could be measured more precisely using the monochromic photometer."}, "HeLa cells [2]": {"system": "HeLa cells", "experiment": "Photo-induced endosomal release (fluorescence imaging)", "assay_type": "cell-based, human", "conditions": "washed", "protocol": "as §1, §2\nThe effect of light irradiation on cells that have endocytosed TMR-TAT was first investigated. HeLa cells were incubated in the presence of TMR-TAT (3 µM) for 1 hour at 37°C. After washing the cells, the sample was placed on a microscope and the cellular distribution of the peptide was assessed by fluorescence imaging. […] Within seconds, the content of many endosomes was released into the cell and the peptides were distributed throughout the cell. The peptide also accumulated at the nucleoli, a known effect of TAT [7]. […] The viability of non-irradiated cells was, in contrast, not affected by TMR-TAT (Fig. 2B); we found the cytotoxicity of the peptide to be negligible in the absence of light at concentrations up to 25 µM (supporting information Fig. S1)."}, "HeLa cells [3]": {"system": "HeLa cells", "experiment": "Endocytic uptake (fluorescence of endocytic organelles)", "assay_type": "cell-based, human", "protocol": "as §1\nSupplementary file pone.0017732.s003.tif: Figure S3 Comparison of the fluorescence intensity of endosomes containing TMR-TAT (incubation at 3 µM) or TMR-K9 (incubation at 10 µM) in the images presented in Figure 1. Imaging was performed in both cases under identical conditions. The fluorescence intensities of all endocytic organelles was measured the Slidebook software. […] (TIF) Click here for additional data file."}, "HeLa cells [4]": {"system": "HeLa cells", "experiment": "Photosensitization of extracellular peptide at 4°C (endocytosis blocked)", "assay_type": "cell-based, human", "conditions": "3 µM, 4°C to block endocytosis, irradiated at 560 nm with compound still in the media", "protocol": "as §1\nIt is therefore possible that the endosomal release observed in the experiments of Figure 1 might be necessary to cause cell death. To investigate whether this is the case, we examined if light-induced cell-death could be observed when the peptides were only localized at the plasma membrane of cells. For these experiments, HeLa cells were first incubated with the peptides (3 µM) at 4°C to block endocytosis. Cells were then irradiated with the peptides still present in the media (the peptide is not retained at the plasma membrane when cells are washed). […] Cells were then washed and observed by fluorescence imaging. […] On the other hand, the membrane damage and cell death obtained after TMR-TAT photosensitization were also observed when hematoporphyrin (HP) or hematoporphyrin derivative (HPD) were used (Fig. 4B). […]"}, "[5]": {"conditions": "cited from earlier work", "text": "Upon light irradiation TMR-TAT rapidly and efficiently disrupts the membrane of endosomes. However, in our hands, this activity is also accompanied by the simultaneous destruction of cells. The peptide therefore played the role of a photosensitizer, a molecule able to kill cells upon light irradiation. While multiple cellular events might take place during the photosensitization of the compound, the damage to cellular membranes other than that of endosomes appears to lead to this photocytotoxic effect. The peptide was for instance able to lyse the plasma membrane of HeLa cells as well as the m ..."}}, "note": "Entries after “also recorded” stand apart in the source; their conditions may differ.", "data": [{"molecule": "CC(/C=C/C=C(\\C)C(=O)O)=C\\C=C\\C=C(C)\\C=C\\C=C(/C)C(=O)O", "note": "[crocetin, reference compound]", "values": [{"measurement": "effect of quencher on photohemolysis", "setting": "red blood cells (RBCs); crocetin 50 µM", "result": "dramatic reduction"}, {"measurement": "cell death by irradiated TMR-TAT in the presence of quencher", "setting": "HeLa cells [1]; TMR-TAT 3 µM with crocetin 50 µM for 1 hour, washed, 560 nm", "result": "cell-death was not observed; also recorded: not accompanied by membrane blebbing or SYTOX® Blue staining"}, {"measurement": "endosomal release of TMR-TAT in the presence of quencher", "setting": "HeLa cells [2]; TMR-TAT 3 µM with crocetin 50 µM for 1 hour, 560 nm", "result": "lesser extent; also recorded: reduced by crocetin but not abolished"}]}, {"molecule": "TMR-KKKKKKKKK-NH2 [TMR-K9, 9 positively charged lysine residues labeled with TMR; serves as a control]", "values": [{"measurement": "fold less efficient than TMR-TAT and TMR-riTAT in causing photohemolysis", "setting": "red blood cells (RBCs); RBCs 0.25% in PBS, 2 µM, 560 nm for 400 msec (~8 J/cm^2), average of 4 experiments", "result": 5, "unit": "fold"}, {"measurement": "photocytotoxicity / cell death after irradiation at 560 nm", "setting": "HeLa cells [1]; washed", "result": "remain viable; also recorded: no photocytoxicity; also recorded: essentially non-cytotoxic"}, {"measurement": "endocytic uptake by cells", "setting": "HeLa cells [3]; 1 h at 37°C, washed, fluorescence imaging (TMR-TAT 3 µM; TMR-K9 higher concentration)", "result": "endocytosed by cells"}, {"measurement": "amount present in endocytic organelles (fluorescence intensity) compared with TMR-TAT", "setting": "HeLa cells [3]; TMR-K9 incubation at 10 µM vs TMR-TAT at 3 µM, identical imaging", "result": "equal or greater that that of TMR-TAT"}, {"measurement": "photo-induced endosomal release (photoendosomolytic activity) at 560 nm", "setting": "HeLa cells [2]; incubation 1 h 37°C (3 µM; TMR-K9 10 µM), irradiated at 560±20 nm", "result": "not affected"}, {"measurement": "light-induced cell death with peptide only extracellular", "setting": "HeLa cells [4]", "result": "did not die"}]}, {"molecule": "5(6)-carboxytetramethylrhodamine [TMR, reference compound]", "values": [{"measurement": "photohemolysis (lytic effect on RBCs upon light exposure)", "setting": "red blood cells (RBCs); RBCs 0.25% in PBS, irradiation at 560 nm", "result": "no lytic effect"}, {"measurement": "photocytotoxicity / cell death after irradiation at 560 nm", "setting": "HeLa cells [1]; washed", "result": "did not cause cell death; also recorded: essentially non-cytotoxic"}, {"measurement": "light-induced cell death with peptide only extracellular", "setting": "HeLa cells [4]", "result": "did not die"}]}, {"molecule": "[N-]=[N+]=[N-].[Na+]", "note": "[sodium azide, reference compound]", "values": [{"measurement": "effect of hydrophilic 1O2 scavenger on photohemolysis by TMR-TAT or TMR-riTAT", "setting": "red blood cells (RBCs)", "result": "no detectable decrease"}]}, {"molecule": "N[C@@H](Cc1c[nH]cn1)C(=O)O", "note": "[L-histidine, reference compound]", "values": [{"measurement": "effect of hydrophilic 1O2 scavenger on photohemolysis by TMR-TAT or TMR-riTAT", "setting": "red blood cells (RBCs)", "result": "no detectable decrease"}]}, {"molecule": "CC1=C(CCC(=O)O)c2cc3[nH]c(cc4nc(cc5[nH]c(cc1n2)c(C)c5C(C)O)C(C)=C4C(C)O)c(C)c3CCC(=O)O", "note": "(stereo not shown) [HP, hematoporphyrin]", "values": [{"measurement": "membrane damage and cell death after photosensitization", "setting": "HeLa cells [1]; incubated 1 hour, washed with L-15, irradiated at 560 nm", "result": "also observed"}, {"measurement": "singlet oxygen quantum yield", "setting": "[5]", "result": "approximately 0.5"}]}, {"molecule": "GRKKRRQRRR [TAT, prototypical cell-penetrating peptide TAT, unlabeled]", "values": [{"measurement": "photocytotoxicity / cell death after irradiation at 560 nm", "setting": "HeLa cells [1]; washed", "result": "did not die"}]}, {"molecule": "CC(=O)Oc1c(C)c(C)c2c(c1C)CCC(C)(CCC[C@H](C)CCC[C@H](C)CCCC(C)C)O2", "note": "(stereo partly drawn) [α-tocopherol acetate]", "values": [{"measurement": "onset of photosensitization of TMR-TAT in the presence of quencher", "setting": "HeLa cells [1]; α-tocopherol acetate prior to TMR-TAT incubation and during irradiation", "result": "delayed"}, {"measurement": "photo-induced endosomal release and cell death by TMR-TAT in the presence of quencher", "setting": "HeLa cells [1]; α-tocopherol acetate prior to TMR-TAT incubation and during irradiation, data not shown", "result": "still observed"}]}]}
